Source: ChEMBL document CHEMBL4364276, “Discovery of 4-phenyl-2H-benzo[b][1,4]oxazin-3(4H)-one derivatives as potent and orally active PI3K/mTOR dual inhibitors” (Eur J Med Chem, 2019)

Tests used:
HeLa [1] = experiment: Inhibition of colony formation in human HeLa cells incubated for 2 weeks crystal violet staining based assay; type: functional, cell-based
[2] = Tmax in Sprague-Dawley rat at 10 mg/kg, po measured upto 24 hrs by LC-MS/MS analysis; type: ADME, organism-based; details: in vivo
[3] = target: RAC-alpha serine/threonine-protein kinase (Homo sapiens) (UniProt P31749); experiment: Inhibition of human AKT1 at 100 nM using KGSGSGRPRTSSFAEG as substrate by [gamma-33P]-ATP assay
[4] = target: Bone morphogenetic protein receptor type-1B (Homo sapiens) (UniProt O00238); experiment: Inhibition of human ALK6 at 100 nM using casein as substrate by [gamma-33P]-ATP assay
[5] = target: Aurora kinase B (Homo sapiens) (UniProt Q96GD4); experiment: Inhibition of human Aurora B at 100 nM using [H-LRRASLG] as substrate by [gamma-33P]-ATP assay
[6] = target: CDK9/Cyclin-T2 (Homo sapiens) (UniProt P50750+O60583); experiment: Inhibition of human CDK9/cyclin-T2 at 100 nM using KTFCGTPEYLAPEVRREPRILSEEEQEMFRDFDYIADWC as substrate by [gamma-33P]-ATP assay; type: protein-complex assay
[7] = target: Casein kinase I isoform gamma-3 (Homo sapiens) (UniProt Q9Y6M4); experiment: Inhibition of human CK1gamma3 at 100 nM using KRRRAL[pS]VASLPGL as substrate by [gamma-33P]-ATP assay
[8] = target: Mitogen-activated protein kinase kinase kinase 8 (Homo sapiens) (UniProt P41279); experiment: Inhibition of human COT1 at 100 nM using MEK1 as substrate by [gamma-33P]-ATP assay
[9] = target: Dual specificity tyrosine-phosphorylation-regulated kinase 4 (Homo sapiens) (UniProt Q9NR20); experiment: Inhibition of human DYRK4 at 100 nM using RRRFRPASPLRGPPK as substrate by [gamma-33P]-ATP assay
[10] = target: Ephrin type-B receptor 2 (Homo sapiens) (UniProt P29323); experiment: Inhibition of human EPHB2 at 100 nM using poly[Glu:Tyr] (4:1) as substrate by [gamma-33P]-ATP assay
[11] = target: Tyrosine-protein kinase FRK (Homo sapiens) (UniProt P42685); experiment: Inhibition of human FRK at 100 nM using poly[Glu:Tyr] (4:1) as substrate by [gamma-33P]-ATP assay
[12] = target: Mitogen-activated protein kinase kinase kinase kinase 2 (Homo sapiens) (UniProt Q12851); experiment: Inhibition of human GCK at 100 nM using MBP as substrate by [gamma-33P]-ATP assay
[13] = target: G protein-coupled receptor kinase 5 (Homo sapiens) (UniProt P34947); experiment: Inhibition of human GRK5 at 100 nM using casein as substrate by [gamma-33P]-ATP assay
[14] = target: Glycogen synthase kinase-3 alpha (Homo sapiens) (UniProt P49840); experiment: Inhibition of human GSK3A at 100 nM using YRRAAVPPSPSLSRHSSPHQ(pS)EDEEE as substrate by [gamma-33P]-ATP assay
[15] = target: Homeodomain-interacting protein kinase 2 (Homo sapiens) (UniProt Q9H2X6); experiment: Inhibition of human HIPK2 at 100 nM using MBP as substrate by [gamma-33P]-ATP assay
[16] = target: Tyrosine-protein kinase Lyn (Homo sapiens) (UniProt P07948); experiment: Inhibition of human LYN-B at 100 nM using poly[Glu:Tyr] (4:1) as substrate by [gamma-33P]-ATP assay
[17] = target: Dual specificity mitogen-activated protein kinase kinase 5 (Homo sapiens) (UniProt Q13163); experiment: Inhibition of human MEK5 at 100 nM using ERK5 as substrate by [gamma-33P]-ATP assay
[18] = target: Mitogen-activated protein kinase kinase kinase 1 (Homo sapiens) (UniProt Q13233); experiment: Inhibition of human MEKK1 at 100 nM using MBP as substrate by [gamma-33P]-ATP assay
[19] = target: Mitogen-activated protein kinase kinase kinase 2 (Homo sapiens) (UniProt Q9Y2U5); experiment: Inhibition of human MEKK2 at 100 nM using MBP as substrate by [gamma-33P]-ATP assay
[20] = target: Mitogen-activated protein kinase kinase kinase 6 (Homo sapiens) (UniProt O95382); experiment: Inhibition of human MEKK6 at 100 nM using MBP as substrate by [gamma-33P]-ATP assay
[21] = target: Mitogen-activated protein kinase kinase kinase 21 (Homo sapiens) (UniProt Q5TCX8); experiment: Inhibition of human MLK4 at 100 nM using MEK1 as substrate by [gamma-33P]-ATP assay
[22] = target: Muscle, skeletal receptor tyrosine-protein kinase (Homo sapiens) (UniProt O15146); experiment: Inhibition of human MUSK at 100 nM using MBP as substrate by [gamma-33P]-ATP assay
[23] = target: Serine/threonine-protein kinase Nek2 (Homo sapiens) (UniProt P51955); experiment: Inhibition of human NEK2 at 100 nM using MBP as substrate by [gamma-33P]-ATP assay
[24] = target: Serine/threonine-protein kinase Nek9 (Homo sapiens) (UniProt Q8TD19); experiment: Inhibition of human NEK9 at 100 nM using casein as substrate by [gamma-33P]-ATP assay
[25] = target: Serine/threonine-protein kinase PAK 1 (Homo sapiens) (UniProt Q13153); experiment: Inhibition of human PAK1 at 100 nM using RRRLSFAEPG as substrate by [gamma-33P]-ATP assay
[26] = target: Protein-tyrosine kinase 2-beta (Homo sapiens) (UniProt Q14289); experiment: Inhibition of human PYK2 at 100 nM using poly[Glu:Tyr] (4:1) as substrate by [gamma-33P]-ATP assay
[27] = target: Receptor-interacting serine/threonine-protein kinase 2 (Homo sapiens) (UniProt O43353); experiment: Inhibition of human RIPK2 at 100 nM using MBP as substrate by [gamma-33P]-ATP assay
[28] = target: Ribosomal protein S6 kinase alpha-3 (Homo sapiens) (UniProt P51812); experiment: Inhibition of human RSK2 at 100 nM using KKLNRTLSVA as substrate by [gamma-33P]-ATP assay
[29] = target: Serine/threonine-protein kinase SIK3 (Homo sapiens) (UniProt Q9Y2K2); experiment: Inhibition of human SIK3 at 100 nM using AMARAASAAALARRR as substrate by [gamma-33P]-ATP assay
[30] = target: SRSF protein kinase 1 (Homo sapiens) (UniProt Q96SB4); experiment: Inhibition of human SRPK1 at 100 nM using GRSRSRSRSR as substrate by [gamma-33P]-ATP assay
[31] = target: Tyrosine-protein kinase Yes (Homo sapiens) (UniProt P07947); experiment: Inhibition of human YES at 100 nM using poly[Glu:Tyr] (4:1) as substrate by [gamma-33P]-ATP assay
HeLa [32] = experiment: Inhibition of colony formation in human HeLa cells at 1.25 uM incubated for 2 weeks crystal violet staining based assay; type: functional; details: 336 h

G protein-coupled receptor kinase 5 (Homo sapiens), sequence (P34947 whole entry, looked up): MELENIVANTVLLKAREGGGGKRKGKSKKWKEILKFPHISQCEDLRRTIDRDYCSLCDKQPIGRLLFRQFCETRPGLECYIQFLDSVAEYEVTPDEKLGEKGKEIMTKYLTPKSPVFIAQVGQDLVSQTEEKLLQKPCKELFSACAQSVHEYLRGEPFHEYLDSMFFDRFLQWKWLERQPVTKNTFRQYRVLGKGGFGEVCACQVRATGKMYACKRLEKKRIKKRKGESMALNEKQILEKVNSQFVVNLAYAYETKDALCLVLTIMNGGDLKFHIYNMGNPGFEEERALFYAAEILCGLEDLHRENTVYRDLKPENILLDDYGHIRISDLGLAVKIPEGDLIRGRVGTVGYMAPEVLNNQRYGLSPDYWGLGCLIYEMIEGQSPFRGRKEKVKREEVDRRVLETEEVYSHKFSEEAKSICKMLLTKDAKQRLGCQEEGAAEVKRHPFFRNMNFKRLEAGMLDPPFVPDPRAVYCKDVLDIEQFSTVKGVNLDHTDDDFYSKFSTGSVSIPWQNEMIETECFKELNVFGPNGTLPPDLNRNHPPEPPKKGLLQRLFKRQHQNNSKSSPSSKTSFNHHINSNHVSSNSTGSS
Casein kinase I isoform gamma-3 (Homo sapiens), sequence (Q9Y6M4 whole entry, looked up, canonical isoform): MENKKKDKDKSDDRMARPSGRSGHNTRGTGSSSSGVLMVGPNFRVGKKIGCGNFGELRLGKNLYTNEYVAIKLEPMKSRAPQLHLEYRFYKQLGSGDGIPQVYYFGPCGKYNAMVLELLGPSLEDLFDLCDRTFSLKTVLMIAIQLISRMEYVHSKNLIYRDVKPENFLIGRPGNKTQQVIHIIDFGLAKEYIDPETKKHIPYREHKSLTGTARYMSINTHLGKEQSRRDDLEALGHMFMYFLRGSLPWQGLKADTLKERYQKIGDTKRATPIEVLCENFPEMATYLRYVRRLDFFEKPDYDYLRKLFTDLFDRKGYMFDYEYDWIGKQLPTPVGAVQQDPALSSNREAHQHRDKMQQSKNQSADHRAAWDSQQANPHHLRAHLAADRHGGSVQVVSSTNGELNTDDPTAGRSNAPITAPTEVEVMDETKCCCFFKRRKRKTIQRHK
Ribosomal protein S6 kinase alpha-3 (Homo sapiens), sequence (P51812 whole entry): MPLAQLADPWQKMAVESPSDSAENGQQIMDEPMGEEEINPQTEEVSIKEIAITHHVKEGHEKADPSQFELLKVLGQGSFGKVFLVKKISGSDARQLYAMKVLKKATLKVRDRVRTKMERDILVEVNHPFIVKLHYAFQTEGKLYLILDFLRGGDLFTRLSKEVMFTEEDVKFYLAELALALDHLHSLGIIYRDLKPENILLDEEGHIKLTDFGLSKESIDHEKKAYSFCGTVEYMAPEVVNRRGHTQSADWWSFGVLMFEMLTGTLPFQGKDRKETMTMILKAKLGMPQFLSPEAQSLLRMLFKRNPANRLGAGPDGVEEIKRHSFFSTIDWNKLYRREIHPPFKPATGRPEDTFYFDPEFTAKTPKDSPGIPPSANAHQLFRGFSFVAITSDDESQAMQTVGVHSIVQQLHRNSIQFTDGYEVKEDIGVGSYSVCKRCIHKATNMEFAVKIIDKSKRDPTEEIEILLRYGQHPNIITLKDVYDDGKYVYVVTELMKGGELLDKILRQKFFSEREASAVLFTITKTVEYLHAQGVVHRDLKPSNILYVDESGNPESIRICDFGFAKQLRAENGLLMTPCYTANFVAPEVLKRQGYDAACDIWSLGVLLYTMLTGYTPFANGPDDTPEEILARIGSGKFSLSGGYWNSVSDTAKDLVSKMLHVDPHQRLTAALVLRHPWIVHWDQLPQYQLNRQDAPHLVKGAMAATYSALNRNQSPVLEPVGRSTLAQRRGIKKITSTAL
Mitogen-activated protein kinase kinase kinase 6 (Homo sapiens), sequence (O95382 whole entry): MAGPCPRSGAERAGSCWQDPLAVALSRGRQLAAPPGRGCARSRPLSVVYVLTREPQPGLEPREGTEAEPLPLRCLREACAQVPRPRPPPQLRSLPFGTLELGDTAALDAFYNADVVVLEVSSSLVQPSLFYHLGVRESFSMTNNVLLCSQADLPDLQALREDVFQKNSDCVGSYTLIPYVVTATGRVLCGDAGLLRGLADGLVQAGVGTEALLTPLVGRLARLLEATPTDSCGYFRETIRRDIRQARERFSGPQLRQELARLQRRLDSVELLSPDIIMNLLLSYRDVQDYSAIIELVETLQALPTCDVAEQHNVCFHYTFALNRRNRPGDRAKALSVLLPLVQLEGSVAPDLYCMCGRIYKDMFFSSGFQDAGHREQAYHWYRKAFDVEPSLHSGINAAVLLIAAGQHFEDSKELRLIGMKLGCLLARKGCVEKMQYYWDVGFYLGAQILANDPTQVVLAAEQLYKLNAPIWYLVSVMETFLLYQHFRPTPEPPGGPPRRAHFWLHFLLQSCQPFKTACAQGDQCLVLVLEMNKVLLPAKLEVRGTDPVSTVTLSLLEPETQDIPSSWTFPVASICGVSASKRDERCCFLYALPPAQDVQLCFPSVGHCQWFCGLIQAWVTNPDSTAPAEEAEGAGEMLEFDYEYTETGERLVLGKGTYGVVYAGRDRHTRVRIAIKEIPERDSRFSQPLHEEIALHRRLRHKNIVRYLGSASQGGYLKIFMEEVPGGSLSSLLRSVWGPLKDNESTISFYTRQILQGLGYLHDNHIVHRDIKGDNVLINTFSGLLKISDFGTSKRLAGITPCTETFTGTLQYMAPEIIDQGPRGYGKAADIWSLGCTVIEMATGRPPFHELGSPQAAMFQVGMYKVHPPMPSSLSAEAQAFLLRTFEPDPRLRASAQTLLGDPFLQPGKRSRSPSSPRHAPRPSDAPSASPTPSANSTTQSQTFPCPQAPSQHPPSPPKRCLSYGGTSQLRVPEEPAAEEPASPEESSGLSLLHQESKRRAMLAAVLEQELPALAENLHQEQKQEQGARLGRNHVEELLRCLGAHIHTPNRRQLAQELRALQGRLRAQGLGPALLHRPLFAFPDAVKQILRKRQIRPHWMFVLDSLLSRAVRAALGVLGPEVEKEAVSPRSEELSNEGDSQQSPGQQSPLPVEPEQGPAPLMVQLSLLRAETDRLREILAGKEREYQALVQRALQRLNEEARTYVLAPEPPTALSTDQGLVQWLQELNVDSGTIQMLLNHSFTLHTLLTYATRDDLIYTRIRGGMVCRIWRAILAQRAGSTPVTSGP
Homeodomain-interacting protein kinase 2 (Homo sapiens), sequence (Q9H2X6 whole entry, looked up): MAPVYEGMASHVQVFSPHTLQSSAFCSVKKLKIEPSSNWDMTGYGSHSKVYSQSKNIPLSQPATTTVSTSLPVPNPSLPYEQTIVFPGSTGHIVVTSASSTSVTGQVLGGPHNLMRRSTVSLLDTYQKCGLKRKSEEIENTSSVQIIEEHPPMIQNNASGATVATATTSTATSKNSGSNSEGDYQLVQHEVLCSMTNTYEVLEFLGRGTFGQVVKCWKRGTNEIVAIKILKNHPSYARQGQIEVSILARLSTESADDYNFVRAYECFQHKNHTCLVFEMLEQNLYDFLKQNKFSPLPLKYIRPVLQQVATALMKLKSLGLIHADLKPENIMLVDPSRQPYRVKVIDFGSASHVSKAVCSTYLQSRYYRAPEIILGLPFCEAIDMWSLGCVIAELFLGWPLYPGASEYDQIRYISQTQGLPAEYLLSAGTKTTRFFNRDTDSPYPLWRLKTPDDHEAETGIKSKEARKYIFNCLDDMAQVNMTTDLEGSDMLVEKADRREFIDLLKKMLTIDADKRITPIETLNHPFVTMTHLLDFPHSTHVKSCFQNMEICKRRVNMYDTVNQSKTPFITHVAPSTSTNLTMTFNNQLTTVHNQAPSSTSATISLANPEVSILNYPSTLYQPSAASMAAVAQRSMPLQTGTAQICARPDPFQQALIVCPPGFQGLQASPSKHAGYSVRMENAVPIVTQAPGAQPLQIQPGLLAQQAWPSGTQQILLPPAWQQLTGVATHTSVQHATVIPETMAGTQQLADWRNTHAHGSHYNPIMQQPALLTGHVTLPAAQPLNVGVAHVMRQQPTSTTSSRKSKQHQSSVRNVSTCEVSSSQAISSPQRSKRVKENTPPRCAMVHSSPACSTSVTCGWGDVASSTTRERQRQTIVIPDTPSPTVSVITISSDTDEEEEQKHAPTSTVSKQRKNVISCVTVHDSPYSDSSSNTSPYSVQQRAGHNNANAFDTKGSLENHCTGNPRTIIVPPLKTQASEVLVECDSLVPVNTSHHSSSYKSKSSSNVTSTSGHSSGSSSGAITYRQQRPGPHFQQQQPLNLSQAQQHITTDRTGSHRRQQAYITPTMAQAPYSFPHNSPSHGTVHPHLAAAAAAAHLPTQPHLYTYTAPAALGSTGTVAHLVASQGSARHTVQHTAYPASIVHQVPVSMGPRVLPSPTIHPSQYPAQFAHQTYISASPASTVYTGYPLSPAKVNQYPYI
Serine/threonine-protein kinase Nek2 (Homo sapiens), sequence (P51955 whole entry): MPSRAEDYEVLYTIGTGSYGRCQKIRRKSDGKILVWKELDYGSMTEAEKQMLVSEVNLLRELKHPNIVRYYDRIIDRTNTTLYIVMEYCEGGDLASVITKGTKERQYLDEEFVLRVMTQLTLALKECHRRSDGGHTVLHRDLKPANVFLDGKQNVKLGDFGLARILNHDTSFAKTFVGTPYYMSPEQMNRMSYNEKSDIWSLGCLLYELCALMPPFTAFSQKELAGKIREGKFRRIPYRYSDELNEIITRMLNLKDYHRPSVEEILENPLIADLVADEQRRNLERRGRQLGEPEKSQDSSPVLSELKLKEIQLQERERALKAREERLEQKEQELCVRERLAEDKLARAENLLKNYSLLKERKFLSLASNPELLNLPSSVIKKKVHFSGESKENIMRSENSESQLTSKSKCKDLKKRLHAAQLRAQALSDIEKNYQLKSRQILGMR
Aurora kinase B (Homo sapiens), sequence (Q96GD4 whole entry): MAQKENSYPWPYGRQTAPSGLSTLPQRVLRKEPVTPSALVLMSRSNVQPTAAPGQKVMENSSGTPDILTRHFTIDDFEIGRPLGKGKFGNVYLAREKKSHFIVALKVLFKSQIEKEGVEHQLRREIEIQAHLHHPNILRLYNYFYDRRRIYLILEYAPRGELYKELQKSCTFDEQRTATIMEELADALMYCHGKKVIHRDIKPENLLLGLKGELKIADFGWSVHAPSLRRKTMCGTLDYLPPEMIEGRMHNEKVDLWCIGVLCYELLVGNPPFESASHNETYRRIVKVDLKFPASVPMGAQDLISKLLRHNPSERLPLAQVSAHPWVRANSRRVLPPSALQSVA

SMILES: COc1ccc(N2C(=O)COc3ccc(-c4cnc(OC)c(NS(=O)(=O)c5ccc(F)cc5)c4)cc32)cc1
- inhibition (HeLa [1]): Dose-dependent effect
- Tmax [2]: 2.67 h
- inhibition [3]: 18.2%
- inhibition [4]: 2.39%
- inhibition [5]: -2.21%
- inhibition [6]: 31.9%
- inhibition [7]: -3.55%
- inhibition [8]: 13%
- inhibition [9]: -2.6%
- inhibition [10]: -6.07%
- inhibition [11]: 8.7%
- inhibition [12]: 1.33%
- inhibition [13]: -0.54%
- inhibition [14]: -8.76%
- inhibition [15]: -4.94%
- inhibition [16]: 4.9%
- inhibition [17]: -3.16%
- inhibition [18]: 6.33%
- inhibition [19]: 28.4%
- inhibition [20]: 3.96%
- inhibition [21]: 5.78%
- inhibition [22]: -3.79%
- inhibition [23]: 20.4%
- inhibition [24]: 10.4%
- inhibition [25]: 7.71%
- inhibition [26]: 6.22%
- inhibition [27]: 14.2%
- inhibition [28]: 19.6%
- inhibition [29]: 8.49%
- inhibition [30]: 1.44%
- inhibition [31]: 3.18%
- inhibition at 1.25 µM (HeLa [32]): > 50%
